Assay results published in patent KR20210021686A, “비천연 아미노산-결합 단백질, 및 이를 코딩하는 유전자가 도입된 형질전환체” (priority 2019, dated 2021).

Molecular target: T1, Escherichia coli leucine-binding protein (류신-결합 단백질, LBP), wild type (WT), SEQ ID NO: 46, YFP-LBP fusion sensor (Escherichia coli, UniProt P04816)
T1 construct: made in house; host or cells: E. coli C321.ΔA (co-transformed with pEvol-CouA-RS)
Test: FRET titration, dissociation constant (Table 1), WT LBP
Details: 50 mM NaH2PO4, 50 mM NaCl, pH 9.0

T1 sequence (P04816 24-369): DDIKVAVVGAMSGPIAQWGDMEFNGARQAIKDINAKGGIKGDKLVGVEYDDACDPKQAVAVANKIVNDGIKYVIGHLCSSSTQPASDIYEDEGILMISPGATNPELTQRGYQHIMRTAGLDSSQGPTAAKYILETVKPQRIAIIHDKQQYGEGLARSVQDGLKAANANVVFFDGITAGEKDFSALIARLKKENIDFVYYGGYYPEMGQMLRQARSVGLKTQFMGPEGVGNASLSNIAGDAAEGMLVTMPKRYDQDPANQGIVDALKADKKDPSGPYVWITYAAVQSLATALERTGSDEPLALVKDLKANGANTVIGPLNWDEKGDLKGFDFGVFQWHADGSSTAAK

CC(C)C[C@H](N)C(=O)O [L-Leu, L-류신]
Kd: 0.41 µM
